Assay results published in patent publication US4902720A (priority 1988, dated 1990).
Read-outs that look alike come from different tables or passages of the source.

Tests used:
[1] = system: HSV-1 and HSV-2; format: cell-based
[2] = system: Flow 1000 cells (foreskin cells); details: 25 mg/ml, 48 hours, 37° C.
Description: (§1) Healthy confluent monolayer cell cultures were overlaid with 1 ml of the drug and incubated for 48 hours at 37° C. and then stained. Cell cultures with maintenance media were used as controls.

[3] = system: RK-13 cells; details: 25 mg/ml, 48 hours, 37° C.
Description: as §1

[4] = system: Vero cells; details: 25 mg/ml, 48 hours, 37° C.
Description: as §1

[5] = system: HSV-2
Description: Female guinea pigs (obtained from Charles River, Inc.) weighing approximately 200 g were used as a model for HSV-2 skin lesions. The animals were anesthetized with 0.15 ml of Ketamine-Rompum mixture. The animals were first shaved on their back with a hair clipper and then treated with a depilatory cream (Nair). The denuded area was washed well and then dried. A tuberculin tyne was washed with ethanol and air dried.
Two methods were tried for infecting the animals with the virus. In one, a drop of HSV-2 suspension was placed on the skin and the skin was punctured with the tyne. In the second method, the tyne was dipped in the virus suspension before puncturing the skin.
In the first experiment, each of 3 guinea pigs was infected on three areas of their backs. At 3 days post infection, treatment was begun on one side of each animal, leaving the other side untreated as a control.
The animals were examined daily for vesicles (V), crust (C) and for erythema (R) alone.
In the next experiment, 6 guinea pigs were infected in the same manner as the initial 3 guinea pigs. Treatment was begun 12-16 hours post infection. […] Lesions showing an erythematous base with either a blister or a crust on top were considered to be HSV specific. […] Both the control animals and treated animals were carefully read in the same manner.

[6] = system: HSV-1 (F strain); details: for % plaque inhibition B: Exp. 1D
[7] = system: HSV-1; details: 20 mg/ml TEAC, virus control 1398
[8] = system: vaccinia
[9] = system: HSV type 2
[10] = system: herpes simplex virus (HSV types 1 and 2)

In the case of `CC[N+](CC)(CC)CC.[Cl-]` [TEAC, tetraethylammonium chloride], the “permissiveness of cells to virus” value ([1]; TEAC added before viral inoculation, time and dosage dependent) is reported as “rendered the cells non-permissive to the virus and no plaque formed”, the “in vitro replication of HSV-1 and HSV-2” value ([1]; summary) is reported as “inhibited the in vitro replication of HSV-1 and HSV-2” and the “plaque number and size” value ([1]; summary) is reported as “not only by the reduced number of plaque, but also by their reduced size”. The toxicity [2] was “toxicity”, the toxicity [3] was “toxicity” and the toxicity [4] was “slight toxicity”. For the same compound, the “number and size of lesions” value ([5]; TEAC from 12-16 hours P.I.) was “significant reduction in the number of lesions, but also in their size”, the “rupture and crusting of lesions” value ([5]; TEAC from 12-16 hours P.I.) was “the lesions neither ruptured nor crusted” and the “number and appearance of lesions, treated vs control” value ([5]; TEAC ointment from 12-16 hours P.I.) was “marked difference between the two groups, not only in the number of lesions but also in their appearance”. The “Percent Reduction of lesions” value ([5]; TEAC ointment from 12-16 hours P.I., day 3 P.I.) was 21.0%, the “# of lesions” value ([5]; TEAC ointment from 12-16 hours P.I., day 3 P.I., control 19) was 15 lesions and the “Percent Reduction of lesions” value ([5]; TEAC ointment from 12-16 hours P.I., day 4 P.I.) was 27.5%. The “# of lesions” value ([5]; TEAC ointment from 12-16 hours P.I., day 4 P.I., control 40) was 29 lesions, the “Percent Reduction of lesions” value ([5]; TEAC ointment from 12-16 hours P.I., day 5 P.I.) was 58.5% and the “# of lesions” value ([5]; TEAC ointment from 12-16 hours P.I., day 5 P.I., control 41) was 17 lesions. The “Percent Reduction of lesions” value ([5]; TEAC ointment from 12-16 hours P.I., day 6 P.I.) was 58.3%, the “# of lesions” value ([5]; TEAC ointment from 12-16 hours P.I., day 6 P.I., control 36) was 15 lesions and the “dermatitis (rash)” value ([5]; day 4 after treatment, TEAC or its vehicle or both) was “a rash appeared”. The “% plaque inhibition” value ([6]; Exp. 1C, 3 hours pre-incubation, 2.5 mg/culture) was 10%, the “% plaque inhibition” value ([6]; Exp. 1C, 3 hours pre-incubation, 5.0 mg/culture) was 22% and the “% plaque inhibition” value ([6]; Exp. 1C, 3 hours pre-incubation, 10.0 mg/culture) was 71%. For the same compound, the “% plaque inhibition B” value ([6]; 3 hours pre-incubation, 12.5 mg/culture) was 80%, the “% plaque inhibition B” value ([6]; 3 hours pre-incubation, 25.0 mg/culture) was 79% and the “% plaque inhibition B” value ([6]; 3 hours pre-incubation, 50.0 mg/culture) was 82%. For the same compound, the “% plaque inhibition B” value ([6]; 3 hours pre-incubation, 100.0 mg/culture) was 79%, the “% plaque inhibition” value ([6]; Exp. 1E, 2 hours pre-incubation, 6.25 mg/culture) was 0% and the “% plaque inhibition” value ([6]; Exp. 1E, 2 hours pre-incubation, 12.50 mg/culture) was 18%. The “% plaque inhibition” value ([6]; Exp. 1E, 2 hours pre-incubation, 25.00 mg/culture) was 17%, the “% plaque inhibition” value ([6]; Exp. 1E, 2 hours pre-incubation, 50.00 mg/culture) was 24% and the “% plaque inhibition” value ([6]; Exp. 1E, 2 hours pre-incubation, 100.00 mg/culture) was 68%. The “% plaque inhibition” value ([6]; Exp. 1E, 4 hours pre-incubation, 6.25 mg/culture) was “less than 20%”, the “% plaque inhibition” value ([6]; Exp. 1E, 4 hours pre-incubation, 12.50 mg/culture) was “less than 20%” and the “% plaque inhibition” value ([6]; Exp. 1E, 4 hours pre-incubation, 25.00 mg/culture) was 37.5%. For the same compound, the “% plaque inhibition” value ([6]; Exp. 1E, 4 hours pre-incubation, 50.00 mg/culture) was 63%, the “appearance of cell layer” value ([6]; Exp. 1E, 4 hours pre-incubation, 100.00 mg/culture) was “thin” and the “% plaque inhibition” value ([6]; Exp. 1E, 4 hours pre-incubation, 100.00 mg/culture, cell layer thin) was 100%. For the same compound, the “% plaque inhibition” value ([6]; Exp. 1E, 7 hours pre-incubation, 6.25 mg/culture) was 50%, the “% plaque inhibition” value ([6]; Exp. 1E, 7 hours pre-incubation, 12.50 mg/culture) was 76% and the “% plaque inhibition” value ([6]; Exp. 1E, 7 hours pre-incubation, 25.00 mg/culture) was 96.5%. For the same compound, the “% plaque inhibition” value ([6]; Exp. 1E, 7 hours pre-incubation, 50.00 mg/culture) was 95.7%, the “appearance of cell layer” value ([6]; Exp. 1E, 7 hours pre-incubation, 100.00 mg/culture) was “thin” and the “% plaque inhibition” value ([6]; Exp. 1E, 7 hours pre-incubation, 100.00 mg/culture, cell layer thin) was 100%. For the same compound, the PFU/ml ([7]; removed 4 hours P.I.) was 1042 PFU/ml, the PFU/ml ([7]; removed 6 hours P.I.) was 596 PFU/ml and the PFU/ml ([7]; removed 8 hours P.I.) was 436 PFU/ml. For the same compound, the PFU/ml ([7]; removed 10 hours P.I.) was 163 PFU/ml, the “appearance of cell layers” value [8] was “thin” and the plaque [8] was “did not have any plaque”. For the same compound, the sciatic pain ([9]; Patient A, 2.8 cc (100 mg/cc), first infusion, immediately after) was “cessation of sciatic pain”, the pain or lesions ([9]; Patient A, about five weeks after third infusion 3.4 cc) was “no further pain or lesions” and the “time without lesions or pain” value ([9]; Patient A, after first infusion) was 52 to 53 days. The “time until spots were gone” value ([9]; Patient A, after third infusion) was 24 h, the symptoms ([9]; Patient A, approximately three weeks after first infusion) was “asymptomatic” and the “lesions or pain at last contact” value ([9]; Patient A, eighteen months after the initial exam) was “no further lesions or pain”. For the same compound, the “time to disappearance of vesicles” value ([9]; Patient A, recurrence after first infusion) was “two to three”, the sciatic nerve pain ([9]; Patient A, second infusion 3.2 cc) was “sciatic nerve pain disappeared during the infusion” and the clearance ([9]; Patient E, a week after second infusion, 2 pinpoint lesions remaining) was 99%. For the same compound, the new pinpoint lesions ([9]; Patient E, after third infusion) was 5-6 pinpoint lesions, the lesions ([9]; Patient E, third infusion 5 cc, 5 days later) was “all lesions had cleared up” and the general condition ([9]; Patient F, about 3 weeks after third infusion) was “completely cleared up”. The lesion ([9]; Patient F, first infusion 3.8 cc, next day) was “improved”, the “time to clearing of lesion” value ([9]; Patient F, second infusion 4.5 cc) was 48 h and the “time to clearing of lesions” value ([9]; Patient F, third infusion 4.0 cc) was no more than 4 days. The “time until lesions were gone” value ([9]; Patient G, first infusion 4.3 cc) was no more than 48 h, the long term outcome ([9]; Patient J, 12 months later, ointment) was “the problem has resolved itself completely” and the “severity of subsequent attacks” value ([9]; Patient K, after second infusion) was “milder severity”. For the same compound, the anticipated massive attack ([9]; Patient K, second infusion 3.4 cc, six weeks later) was “the attack had not occurred”, the attacks ([10]; Patient B, about a month after report on fourth infusion) was “no more attacks” and the recurrences ([10]; Patient B, after third infusion) was “recurrences were not eliminated”. For the same compound, the “resolution of oral lesions” value ([10]; Patient B, first infusion 3.7 cc (5 mg/kg)) was “resolution occurring in a shorter than usual time”, the “value of last treatment” value ([10]; Patient B, fourth infusion 4.8 cc) was “of no value” and the “aura and expected labial lesion” value ([10]; Patient B, second infusion 3.7 cc, following day) was “absence of an aura and no occurrence of the expected lesion except for a very small lesion at the corner of the mouth”. The “time to disappearance of penile lesion” value ([10]; Patient B, third infusion 4.5 cc) was 2 to 3 days, the long term outcome ([10]; Patient C, five months and ten months after initial treatment) was “no further problems” and the infection ([10]; Patient I, first infusion 4.7 cc, four to five days later) was “they were all clear”. For the same compound, the “time to clearing of lesion” value ([10]; Patient I, second infusion 4.75 cc (5.5 mg/kg)) was 3 days, the nocturnal headaches ([10]; Patient I, three months after second infusion) was “no further nocturnal headaches” and the drug related effects (Patient A, 2.8 cc infusion) was “some blurred vision and slight dizziness on rising to the seated position”. For the same compound, the drug related effects (Patient A, 3.2 cc infusion) was “some blurred vision”, the drug related effects (Patient B, 3.7 cc (5 mg/kg) infusion) was “blurred vision, dryness of the mouth, and unsteady gait” and the “time to cessation of drug related effects” value (Patient B, after cessation of infusion) was 10 to 15 min. The drug related effects (Patient C, 3.85 cc (5 mg/kg)) was “slightly blurred vision”, the drug related effects (Patient D, 2.8 cc (5 mg/kg)) was “dry mouth and transient blurred vision” and the drug related effects (Patient E, 4.8 cc (5 mg/kg)) was “slightly blurred vision”. For the same compound, the drug related effects (Patient J, 3.6 cc (5.5 mg/kg)) was “some blurred vision”, the drug related effects (Patient K, 3.1 cc and 3.4 cc) was “some blurred vision” and the drug related effects (Patient L, 2.9 cc (5.5 mg/kg)) was “some blurred vision”. For the same compound, the “time patient felt badly following treatment” value (Patient L, 2.9 cc (5.5 mg/kg)) was 24 to 36 h.
